Reference: US9381208B2, “Structure and use of 5′ phosphate oligonucleotides” (Rheinische Friedrich-Wilhelms-Universität, priority 2006, dated 2016)

Columns and labels:
[1] = Blood cell counts (leucocytes, platelets) after injection; format: in vivo, C57BL/6 mice; conditions: 50 μg, 48 hours
Method: (b & c) C57BL/6 mice were injected with 50 μg 3p-2.2 complexed with jetPEI™. Blood was collected after 48 h and processed as EDTA […] for measurement of leucocytes (WBC) and platelets. Blood cell counts were performed at the Central Laboratory of the Department of Internal Medicine, University of Munich at the indicated time point (P**<0.01 between the platelet count of 3p-2.2 and CpG). Data are shown as means±SEM of 2 independent experiments.

[2] = tested on: B16 melanoma lung metastases; assay: B16 melanoma lung metastases model; format: in vivo; conditions: C57BL/6 mice, 50 μg complexed with jetPEI intravenously on day 3, 6 and 9, day 14, compared with PolyA
Method: (a) Therapeutic regimen: Mice were challenged with 4×10^5 B16 melanoma cells intravenously to experimentally induce lung metastases on day 0. Mice were treated intravenously with the indicated nucleic acid complexed to jetPEI™ on day 3, 6 and 9 as indicated. 14 days after challenge, the number of macroscopically visible melanoma metastases on the surface of the lungs was counted with the help of a dissecting microscope or the lung weight was calculated.
(b) Groups of five C57BL/6 mice were challenged with 4×10^5 B16 and treated as described. Mice were treated intravenously on day 3, 6 and 9 with 50 μg of OH-2.2, 50 μg 3p-2.2, 50 μg 3p-GC (a nonspecific double-stranded 3p-RNA) or 50 μg CpG oligonucleotide ligand, each complexed with jetPEI™. Control groups received 100 μl of Glucose 5% or 50 μg of PolyA complexed with jetPEI™. Tumor growth was assessed after 14 days by measuring the weight of the lungs. Shown are lung weights of five individual mice. The mean lung weight is indicated by a column. […]
For the induction of lung metastases we injected 4×10^5 B16 melanoma cells into the tail vein of the indicated mice. […] 14 days after challenge the number of macroscopically visible melanoma metastases on the surface of the lungs was counted with the help of a dissecting microscope or, in case of massive tumor load, lung weight was determined. […]

[3] = tested on: PBMC; assay: IFN-α in PBMC transfected with chemically synthesized 5′ triphosphate RNA (ELISA); format: cell-based, human; conditions: oligonucleotide alone, 0.2 μg, 24 hours
Method: PBMC were transfected with chemically synthesized single-strand oligonucleotides alone or together with their complementary antisense strand (AS) by using Lipofectamine and incubated in the presence or absence of chloroquine (Chl). CpG2331 was used as a positive and chloroquine-sensitive control for IFN-α induction in PBMC.
The isRNA9.2 (Hornung V et al. (2005) Nat Med 11(3):263-70) generated by in vitro transcription was used a positive control (IVT2-3PRNA). CpG2331 is a TLR9 ligand. PBMC (400,000 cells per well) were transfected with oligonucleotides by using Lipofectamin (0.5 μl, 0.2 μg oligonucleotide). Hybridization of complementary strands was performed by heating 4 μg total RNA in 20 μl of buffer (final 50 mM Tris/HCl pH7.5 100 mM NaCl) up to 70° C. followed by cooling down to 40° C. Chloroquine was used to block TLR-mediated nucleic acid recognition (2.5 μg/ml).

[4] = tested on: human primary monocytes; assay: IFN-α production in human primary monocytes transfected with RNA (ELISA); format: cell-based; conditions: 200 ng RNA transfected, 24 hours, ELISA
[5] = tested on: PDC; assay: IFN-α production in human PDC (ELISA); format: cell-based; conditions: 24 hours
Method: Human PBMC were prepared from whole blood donated by young healthy donors by Ficoll-Hypaque density gradient centrifugation (Biochrom, Berlin, Germany). PDC were isolated by MACS using the blood dendritic cell Ag (BCDA)-4 dendritic cell isolation kit from Miltenyi Biotec (Bergisch-Gladbach, Germany). Briefly, PDC were labelled with anti-BDCA-4 Ab coupled to colloidal paramagnetic microbeads and passed through a magnetic separation column twice (LS column, then MS column; Miltenyi Biotec). The purity of isolated PDC (lineage-negative, MHC-II-positive and CD123-positive cells) was above 95%. Before isolation of monocytes, PDC were depleted by MACS (LD column; Miltenyi Biotec) and then monocytes were isolated using the monocyte isolation kit II (Miltenyi Biotec). […] PDC cultures were additionally supplemented with 10 ng/ml IL-3 (R&D Systems). […] Vero (African green monkey kidney) and HEK 293T (human embryonic kidney) cells were maintained in Dulbecco's modified Eagle's medium supplemented with antibiotics and 5% or 10% foetal calf serum, respectively. BSR cells were propagated in Glasgow minimal essential medium supplemented with 10% newborn calf serum, phosphate broth, amino acids and antibiotics.
Human IFN-α was assessed in cell culture supernatants using the IFN-α module set (Bender MedSystems, Graz, Austria). The murine IP-10 ELISA was from Biosource (Solingen, Germany), the murine IFN-[…] ELISA was from PBL Biomedical Laboratories (Piscataway, USA). All ELISA procedures were performed, according to manufacturers' recommendations.

Substance | thrombocytopenia [1] | lung metastases [2] | IFN-α induction in PBMC [3] | IFN-α production in monocytes [4] | IFN-α production in PDC [5]
5′-TCCATGACGTTCCTGACGTT-3′ [CpG 1826] | more apparent | significant reduction of lung metastases, but to a lesser extent than 3p-2.2 | – | – | –
5′-pppAGCUUAACCUGUCCUUCAA-3′ [9.2s (IVT)] | – | – | induced IFN-α | strongly induced IFN-α production | produced IFN-α
